# Patent US20080064048A1, “Methods for Selecting Proteins that are Readily Presented as Antigens on Dendritic Cells” (Medical and Biological Laboratories, Co., Ltd., priority 2004, published 2008)
# Where a SMILES comes first, the peptide text is derived from it. The star is where a group is joined. Cbz = O=C(OCc1ccccc1)*
# T1: TAP1 (mouse, UniProt P21958 1-724)
# T1 construct: Endogenous protein; also called TAP1/2
# T1 sequence (looked up): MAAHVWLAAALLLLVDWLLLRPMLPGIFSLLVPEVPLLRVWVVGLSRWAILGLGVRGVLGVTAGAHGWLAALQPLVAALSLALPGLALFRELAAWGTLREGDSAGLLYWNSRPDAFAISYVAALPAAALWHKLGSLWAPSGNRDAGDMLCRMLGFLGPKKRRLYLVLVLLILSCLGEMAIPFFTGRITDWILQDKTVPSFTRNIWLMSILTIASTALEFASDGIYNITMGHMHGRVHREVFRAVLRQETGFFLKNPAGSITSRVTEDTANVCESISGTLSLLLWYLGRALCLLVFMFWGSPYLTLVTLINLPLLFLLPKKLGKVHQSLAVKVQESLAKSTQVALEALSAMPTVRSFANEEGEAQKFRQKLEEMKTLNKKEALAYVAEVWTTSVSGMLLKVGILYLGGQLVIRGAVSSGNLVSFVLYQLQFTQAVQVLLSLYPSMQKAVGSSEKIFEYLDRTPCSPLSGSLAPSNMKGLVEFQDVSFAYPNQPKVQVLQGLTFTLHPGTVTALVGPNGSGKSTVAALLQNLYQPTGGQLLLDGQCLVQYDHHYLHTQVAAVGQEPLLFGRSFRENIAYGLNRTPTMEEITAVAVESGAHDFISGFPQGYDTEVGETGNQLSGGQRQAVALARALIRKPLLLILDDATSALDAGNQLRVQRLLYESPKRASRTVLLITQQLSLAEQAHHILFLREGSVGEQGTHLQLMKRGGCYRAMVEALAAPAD
# T2: TAP2 (mouse, UniProt P36371 1-702)
# T2 construct: Endogenous protein; also called TAP1/2
# T2 sequence (looked up): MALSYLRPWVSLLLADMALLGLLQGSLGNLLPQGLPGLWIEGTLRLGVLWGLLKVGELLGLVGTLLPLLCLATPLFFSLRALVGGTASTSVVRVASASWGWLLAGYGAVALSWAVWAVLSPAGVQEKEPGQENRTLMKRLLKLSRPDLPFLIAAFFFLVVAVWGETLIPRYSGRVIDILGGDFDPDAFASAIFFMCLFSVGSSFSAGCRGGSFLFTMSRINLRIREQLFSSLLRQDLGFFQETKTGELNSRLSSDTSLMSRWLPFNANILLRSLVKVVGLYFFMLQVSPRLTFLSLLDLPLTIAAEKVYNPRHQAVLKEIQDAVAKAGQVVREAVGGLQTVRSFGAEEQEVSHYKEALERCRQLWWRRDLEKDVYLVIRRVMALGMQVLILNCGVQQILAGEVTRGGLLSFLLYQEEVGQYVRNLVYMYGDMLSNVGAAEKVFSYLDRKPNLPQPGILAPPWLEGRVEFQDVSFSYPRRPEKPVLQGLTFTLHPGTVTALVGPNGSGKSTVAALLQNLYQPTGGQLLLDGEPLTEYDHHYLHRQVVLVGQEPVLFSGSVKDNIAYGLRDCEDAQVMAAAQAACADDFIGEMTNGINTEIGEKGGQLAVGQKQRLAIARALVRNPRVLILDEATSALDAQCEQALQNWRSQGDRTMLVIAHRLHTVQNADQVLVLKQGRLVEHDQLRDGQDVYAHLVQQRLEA
# How the values were obtained:
# DC2.4 cells = assay: Pulse-chase degradation of cell-bound bOVA (SA beads, SDS-PAGE, Western blot); format: cell-based, mouse; conditions: for effect of inhibitor on decrease (degradation) of cell-bound bOVA: DC2.4, bOVA 1 h pulse, chase up to 4 h, MG-132 10 μM, lactacystin 2 μM, NH4Cl 50 mM; for effect of ERAD inhibition on degradation of accumulated bOVA: DC2.4, thapsigargin 300 nM, tunicamycin 2 μg
# Method: Triton X-100 was used to lyse membranes. […] DC2.4 cells were pulsed with bOVA and chased. bOVA was recovered using SA beads, then separated by SDS-PAGE followed by Western blotting using SA-HRP Ctl: a control not containing inhibitors. […] Asterisks in the left panel indicate non-specific binding with SA-HRP.
# Next, DC2.4 cells were incubated with bOVA for one hour, and this was then chased for up to four hours. Cell-bound bOVA was recovered from total cell lysates by streptavidin-agarose and separated by SDS-PAGE.
# Depletion of Ca^2+ in the ER is known to inhibit ERAD. Thapsigargin (Tg) is known to decrease the Ca^2+ concentration in the ER lumen by binding to the ER membrane and functioning as an ionophore and to inhibit ERA D. Thus, in the presence of Tg, bOVA degradation by ERAD is predicted to be suppressed. DC2.4 cells were pulsed with bOVA in the presence of MG-132, then washed with PBS or with PBS containing 1 mM EGTA, and then chased for four hours.
# OT-I CD8+ T cells = assay: Antigen presentation level: IL-2 production by OT-I CD8+ T cells (ELISA); format: cell-based, mouse; conditions: for effect of proteasome inhibitor on stimulation by OVA: DC2.4, OVA 250 μg/mL; for effect of proteasome inhibitor on stimulation by OVA / effect of proteasome inhibitor on stimulation by SIINFEKL peptide: lactastatin 10 μM, MG-132 25 μM; for effect of proteasome inhibitor on stimulation by SIINFEKL peptide: DC2.4, SIINFEKL 10 ng/mL
# Text: Whether knock-down of cellular components involved in ERAD decreases the cross-presentation of exogenous OVA antigen was examined using a system for evaluating the level of antigen presentation, which uses naive CD8^+ T cells from OT-I mice and DC2.4 cells. The DC2.4 cells used as a model of dendritic cells are of the H-2 Kb mouse MHC class I haplotype. OT-I (H-2 Kb) mice are transgenic mice expressing a T cell receptor (TCRα and β) that recognizes an antigenic peptide (SIINFEKL) (SEQ ID NO: 15) derived from OVA presented on the H-2 Kb molecules. The CD8^+ cells of OT-I mice are activated when they recognize OVA peptides presented by BMDCs derived from H-2 Kb mice or by DC2.4 cells. When OVA or bOVA is incubated with and affixed onto DC2.4 cells and the cells are further incubated with naive CD8^+ T cells of OT-I mice, the amount of IL-2 produced by OT-I CD8^+ T cells serves as an index of T-cell stimulation as a result of OVA antigen presented by DC2.4 cells.
# Parental or knocked-down DC2.4 cells were pre-incubated in a culture medium supplemented with 50 μg mL^−1 polymyxin B for 30 minutes in the presence or absence of lactacystin or MG-132, and incubated with OVA (250 μg mL^−1) or SIINFEKL (SEQ ID NO: 15) peptides (10 ng mL^−1) for six hours. The cells were washed, fixed with 1% paraformaldehyde, and aliquoted into microtiter plates (5×10^4 per well). 5×10^4 CD8^+ T cells purified from splenocytes of OT-1 mice using magnetic beads were added to each well and after a 24-hour incubation, the IL-2 secretion was measured by ELISA (BD Biosciences) in triplicate. […]
# [1] = biological target: OVA-derived antigenic peptide SIINFEKL presented on H-2 Kb on DC2.4 cells (chicken; mouse) (UniProt P01887); assay: cell-based or functional assay
# OT-II CD4+ T cells = assay: MHC class II antigen presentation: IL-2 production by OT-II CD4+ T cells; format: cell-based, mouse
# Method: DC2.4 cells pretreated in the presence of NH4Cl were cultured with OVA, and then the stimulation of OT-I CD8^+ T cells in response to MHC […] presentation (circles) and stimulation of OT-II CD4^+ T cells in response to MHC class II antigen presentation (triangles) was determined by measuring IL-2 production levels. IL-2 production level in the presence of NH4Cl was expressed as a ratio relative to the control (IL-2 production was 700 pg/mL relative to OT-I, and 20 pg/mL relative to OT-II).
# TAP1 = biological target: T1, TAP1; assay: co-immunoprecipitation with anti-TAP1 from DC2.4 lysate, SA-HRP blot
# Method: (§1) DC2.4 cells were incubated with bOVA and subjected to co-immunoprecipitation with anti-Sec61α. bOVA was added at 2.5 mg mL⁻¹ to cell lysates before immunoprecipitation (the two left-hand lanes in each panel). After SDS-PAGE, blotting was performed using SA-HRP and anti-Sec61α antibody.
# (§2) 2×10⁷ DC2.4 or BMDC cells were cultured for four hours in a medium containing 10 μM MG-132 in the presence of bOVA at 250 μg mL⁻¹. Cells were lysed in 20 mM HEPES pH7.6 containing 1% digitonin and protease inhibitors to collect biotin-labeled samples. The samples were cleared of impurities in advance using protein G sepharose (Amersham Pharmacia Biotech), and after incubation with antibodies for precipitation (anti-Sec61β, anti Sec61α, anti-VCP, anti-BiP, anti-PDI, anti-calreticulin, anti-TAP1, and anti-TAP2), the immunoprecipitates were collected using protein G. When chicken anti-CHIP antibody was used, immunoprecipitates were collected using a rabbit anti-IgY column (a person, MBL). The precipitated samples were analyzed by SDS-PAGE and Western blotting.
# TAP2 = biological target: T2, TAP2; assay: co-immunoprecipitation with anti-TAP2 from DC2.4 lysate, SA-HRP blot
# Method: as §1, §2
# [2] = DC2.4 pretreated with NH4Cl, cultured with OVA
# [3] = control without NH4Cl, DC2.4 cultured with OVA
molecule,measurement,setting,value
"CC(C)C[C@@H](C=O)NC(=O)[C@H](CC(C)C)NC(=O)[C@H](CC(C)C)NC(=O)OCc1ccccc1 [MG-132, reference compound] (Cbz-Leu-Leu-Leu-aldehyde)",effect of inhibitor on decrease (degradation) of cell-bound bOVA,DC2.4 cells,blocked
same,effect of proteasome inhibitor on stimulation by OVA,OT-I CD8+ T cells,suppressed
same,effect of proteasome inhibitor on stimulation by SIINFEKL peptide,OT-I CD8+ T cells,did not suppress
"CC(=O)N[C@@H](CSC(=O)[C@]1([C@@H](O)C(C)C)NC(=O)[C@H](C)[C@@H]1O)C(=O)O [lactacystin, reference compound]",effect of inhibitor on decrease (degradation) of cell-bound bOVA,DC2.4 cells,blocked
same,effect of proteasome inhibitor on stimulation by OVA,OT-I CD8+ T cells,suppressed
same,effect of proteasome inhibitor on stimulation by SIINFEKL peptide,OT-I CD8+ T cells,did not suppress
OT-I T cell receptor (TCRα and β) on CD8+ T cells of OT-I mice,IL-2 production level,[1],700 pg/mL
C/C=C(/C)C(=O)O[C@H]1C(C)=C2[C@H]([C@@H]1OC(=O)CCCCCCC)[C@@](C)(OC(C)=O)C[C@H](OC(=O)CCC)[C@@]1(O)[C@H]2OC(=O)[C@@]1(C)O [Thapsigargin],effect of ERAD inhibition on degradation of accumulated bOVA,DC2.4 cells,inhibited
tunicamycin,effect of ERAD inhibition on degradation of accumulated bOVA,DC2.4 cells,inhibited
"Cl.N [NH4Cl, Ammonium chloride, reference compound]",effect of inhibitor on decrease (degradation) of cell-bound bOVA,DC2.4 cells,did not significantly affect
same,effect on presentation of the OVA antigen with MHC class to OT-I CD8+ T cells,OT-I CD8+ T cells; [2],did not reduce
same,effect on presentation of the OVA antigen with MHC class II to OT-II CD4+ cells,OT-II CD4+ T cells; [2],inhibited
"OVA-KDEL: OVA with KDEL (Lys-Asp-Glu-Leu) added to its C-terminus, SEQ ID NO: 14 (protein) MGSIGAASMEFCFDVFKELKVHHANENIFYCPIAIMSALAMVYLGAKDSTRTQINKVVRFDKLPGFGDSIEAQCGTSVNVHSSLRDILNQITKPNDVYSFSLASRLYAEERYPILPEYLQCVKELYRGGLEPINFQTAADQARELINSWVESQTNGIIRNVLQPSSVDSQTAMVLVNAIVFKGLWEKAFKDEDTQAMPFRVTEQESKPVQMMYQIGLFRVASMASEKMKILELPFASGTMSMLVLLPDEVSGLEQLESIINFEKLTEWTSSNVMEERKIKVYLPRMKMEEKYNLTSVLMAMGITDVFSSSANLSGISSAESLKISQAVHAAHAEINEAGREVVGSAEAGVDAASVSEEFRADHPFLFCIKHIATNAVLFFGRCVSPASAEDYEYPSRSNGTKNNTSQASKDEL",antigen presentation level compared with OVA,"OT-I CD8+ T cells; DC2.4, data not shown",stronger
"biotin-labeled chicken ovalbumin (bOVA) (other, UniProt P01012 2-386, looked up, biotin-labeled (sites not given), Exogenous antigen added to mouse dendritic cells) GSIGAASMEFCFDVFKELKVHHANENIFYCPIAIMSALAMVYLGAKDSTRTQINKVVRFDKLPGFGDSIEAQCGTSVNVHSSLRDILNQITKPNDVYSFSLASRLYAEERYPILPEYLQCVKELYRGGLEPINFQTAADQARELINSWVESQTNGIIRNVLQPSSVDSQTAMVLVNAIVFKGLWEKAFKDEDTQAMPFRVTEQESKPVQMMYQIGLFRVASMASEKMKILELPFASGTMSMLVLLPDEVSGLEQLESIINFEKLTEWTSSNVMEERKIKVYLPRMKMEEKYNLTSVLMAMGITDVFSSSANLSGISSAESLKISQAVHAAHAEINEAGREVVGSAEAGVDAASVSEEFRADHPFLFCIKHIATNAVLFFGRCVSP",binding result,TAP1,no binding
same,binding result,TAP2,no binding
"Chicken ovalbumin (protein, Chicken ovalbumin used as an antigen model) GSIGAASMEFCFDVFKELKVHHANENIFYCPIAIMSALAMVYLGAKDSTRTQINKVVRFDKLPGFGDSIEAQCGTSVNVHSSLRDILNQITKPNDVYSFSLASRLYAEERYPILPEYLQCVKELYRGGLEPINFQTAADQARELINSWVESQTNGIIRNVLQPSSVDSQTAMVLVNAIVFKGLWEKAFKDEDTQAMPFRVTEQESKPVQMMYQIGLFRVASMASEKMKILELPFASGTMSMLVLLPDEVSGLEQLESIINFEKLTEWTSSNVMEERKIKVYLPRMKMEEKYNLTSVLMAMGITDVFSSSANLSGISSAESLKISQAVHAAHAEINEAGREVVGSAEAGVDAASVSEEFRADHPFLFCIKHIATNAVLFFGRCVSP",antigenicity for stimulation of CD8+ OT-I T cells (IL-2 production),"OT-I CD8+ T cells; DC2.4, dose-response OVA vs bOVA",equally antigenic
same,OVA stimulation of OT-I CD8+ T cells by knocked-down DC2.4 cells,"OT-I CD8+ T cells; Sec61 (S22), VCP (V41) or CHIP (C4) knocked down",reduction in OVA stimulation
same,IL-2 production by OT-I CD8+ T cells,OT-I CD8+ T cells; [3],700 pg/mL
same,IL-2 production by OT-II CD4+ T cells (control),OT-II CD4+ T cells; [3],20 pg/mL
